Measured values as given in US20160000938A1, “REAGENT FOR DIAGNOSIS OF OSTEOARTHRITIS COMPRISING PEPTIDE PROBE OF APOPEP-1” (priority 2013, published 2016).
“Also recorded” adds a separate entry of the source.

What was measured:
[1] = test system: apoptotic chondrocytes of DMM-operated articular cartilage; assay: In situ immunofluorescence staining and TUNEL assay of OA cartilage cryo-sections; set-up: species or system mice
Experimental: Hind limbs of mice were fixed with 4% paraformaldehyde in 0.1 M phosphate-buffered saline (PBS, pH 7.4) for 12 hours, and decalcified with 10% ethylene-diamine tetraacetic acid (EDTA, pH 7.4) for 3 weeks. Decalcified tissues were dipped in 20% sucrose/PBS solution overnight and embedded in OCT compound (Tissue-Tek) for making the frozen samples. Frozen samples were cut at 10 μm thickness from femur to tibia range for joint visible. Cut slices from each animal were selected for the staining with same primary antibodies to comparison at the same area of joint articular cartilage. The section was treated with a blocking solution (0.1% tween-20, 1% bovine serum albumin (BSA), 5% normal donkey serum in PBS) after washing with PBS, and then incubated at 4° C. 1 h with the primary antibodies such as rabbit polyclonal collagen 2 antibody (1:200; abcam, MA, USA), mouse monoclonal MMP-13 antibody (1:200; abcam, MA, USA). After PBS rinses, the sections were incubated with Alexa-594 or Alexa-488-conjugated secondary antibody for 30 min. Thereafter, the sections were incubated with 4′,6′-diamidino-2-phenylindole (DAPI, Sigma-Aldrich, St Louis, Mo., USA) for nuclear staining then mounted with a ProLong® Antifade Kit (Invitrogen, USA). […]

[2] = test system: arthritic joints of DMM mice; assay: Ex vivo optical imaging of extracted hind limbs of DMM mice; type: in vivo, C57BL/6N mice
Experimental: (§1) Male mice at 12 weeks of age were divided into three groups: Sham-ApoPep-1, OA-Control Peptide and OA-ApoPep-1 group (n=4-8/group). For OA model, we performed DMM surgery as described in previous studies (8, 23).
(§2) FlammaTM675-ApoPep-1 was intravenously (i.v.) injected from the tail vain (1 mM 100 μl/20 g) and allowed to circulate for the indicated time periods. In vivo optical imaging was conducted by scanning the mice under anesthesia by inhalation of isofluran (jw pharmaceutical, South Korea) in 80% N2O/20% O2 using Optix Explore (ART, Montreal, Canada). The excitation/emission wavelengths for FlammaTM675 were 676 nm/704 nm. Ex vivo optical imaging was performed with extracted hind limbs by the same method. FlammaTM675-NSSSVDK was used as the control peptide (18).

[3] = test system: ATDC5 chondrocyte cell treated with staurosporine; assay: In vitro binding to apoptotic chondrocytes (immunocytochemistry); type: cell-based; details: fluorescence staining; for binding to apoptotic cells: chondrocytes treated with staurosporine; for binding to live cells: live chondrocytes
Experimental: ATDC5 chondrocyte cell was maintained in a mixture of DMEM and Ham's F-12 (DMEM/F12) medium (Lonza, USA) containing 5% fetal bovine serum (FBS) (Gibco-BRL, USA), 10 ug/ml of human transferrin (Sigma) and 3×10^-8 M of sodium selenite (Sigma) and penicillin/streptomycin. Apoptosis was induced by incubating cells with 0.5 uM Staurosporine (cell signaling, USA) for the indicated time periods. Apoptotic stages were determined by staining the cells with annexin V and ApoPep-1 conjugated with flamma 675. For immunocytochemistry staining, cells were incubated with 1% bovine serum albumin at 37° C. for 30 min for blocking and then binding with 10 μM flamma 675-conjugated peptide at 4° C. for 1 h. Cells were then costained with Alexa-594-annexin V (Invitrogen, Carlsbad, Calif., USA) for 15 min at room temperature in binding buffer (10 mM HEPES, pH 7.4, 140 mM NaCl, and 2.5 mM CaCl2). After fixation, cells were incubated with DAPI for nuclear staining and mounted with a ProLong® Antifade Kit.

[4] = test system: arthritic joints of DMM mice; assay: In vivo optical imaging of fluorescence-labeled ApoPep-1 probe in DMM OA mice; set-up: species or system C57BL/6N mice; details: for OARSI grade of OA at which the probe detects OA / apoptotic chondrocytes: DMM model
Experimental: as §1, §2

Substance | correlation of TUNEL staining with ApoPep-1 signals ([1]; DMM models 2 weeks after surgery) | localisation of ApoPep-1 relative to type II collagen and MMP13 ([1]; DMM-operated articular cartilage, 2 weeks after surgery) | ApoPep-1 fluorescent signal from arthritic joints ([2]; 4 weeks after DMM operation) | ApoPep-1 fluorescent signal from arthritic joints compared with sham-ApoPep-1 and OA-control-Peptide groups ([2]; two weeks after DMM operation) | binding to apoptotic cells [3] | binding to live cells [3] | time after DMM operation at which the probe can detect apoptotic change ([4]; DMM OA model) [weeks] | OARSI grade of OA at which the probe detects OA / apoptotic chondrocytes [4] | OARSI grade of OA at which the probe detects OA / apoptotic chondrocytes ([4]; listed as ApoPep1) | ApoPep-1 fluorescent signal from arthritic joints compared with 4 weeks ([4]; i.v. injection, 8 weeks after DMM operation) | optimal time point for diagnosis after injection ([4]; i.v. injection, DMM mice) [min] | time after injection after which ApoPep-1 binding is undetectable ([4]; i.v. injection, DMM mice) [h] | time after injection of maximal ApoPep-1 binding ([4]; i.v. injection, DMM mice) [min] | fluorescent signal time course after probe injection ([4]; images from 30 minutes to 24 hours after i.v. administration, DMM mice) | ApoPep-1 fluorescent signal from arthritic joints ([4]; in vivo, i.v. injection, 4 weeks after DMM operation) | ApoPep-1 fluorescent signal from arthritic joints compared with sham-ApoPep-1 and OA-control-Peptide groups ([4]; in vivo, i.v. injection, one week after DMM operation) | ApoPep-1 fluorescent signal from arthritic joints compared with sham-ApoPep-1 and OA-control-Peptide groups ([4]; in vivo, i.v. injection, two weeks after DMM operation)
CQRPPR [ApoPep-1] | strongly correlated | detected where type II collagen decreased and MMP13 increased | maximal | significant increase | bind to apoptotic cells | not to live cells | 2 | grade I OA; also recorded: Grades I | Grade II | reduced | 30 | 8 | 30 | clearly detectable from arthritic joint sat 30 minutes after the probe injection and decreased according to time course | maximal | no significant difference | detected strongly; also recorded: significant increase
annexin V: a 36 kDa protein that binds to phosphatidylserine, early marker of apoptotic cell death [reference compound] |  |  |  |  | bind to apoptotic cells | not to live cells |  |  |  |  |  |  |  |  |  |  | 
